# According to PubChem BioAssay AID2060906 (Molecular Pharmacology Branch, DTP, NCI, 2025):
# Test system: 485176-168-R4-J1-PDC complex spheroid growth
# Experiment: Anticancer human tumor 485176-168-R4-J1-PDC patient-derived pancreatic adenocarcinoma cell line growth inhibition [RAS]
# Details: for viability, T/C: stronger effect = lower value
# Summary of the method: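 Tumour cells grown as complex spheroids with HUVEC endothelial cells and mesenchymal stem cells, treated with RAS pathway inhibitor combinations. Each agent spans half-log steps from near clinical Cmax, or 10 microM where Cmax is unknown.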
# [1] = curve of first compound, second compound 0.0316 µM
# [2] = curve of first compound, second compound 0.1 µM
# [3] = curve of first compound, second compound 0.316 µM
# [4] = curve of first compound, second compound 1 µM
# [5] = curve of first compound, second compound 3.16 µM
# [6] = curve of first compound, second compound 10 µM
# [7] = second compound 0.0316 µM, first compound 0.0316 µM
# [8] = second compound 0.0316 µM, first compound 0.1 µM
# [9] = second compound 0.0316 µM, first compound 0.316 µM
# [10] = second compound 0.0316 µM, first compound 1 µM
# [11] = second compound 0.0316 µM, first compound 3.16 µM
# [12] = second compound 0.0316 µM, first compound 10 µM
# [13] = second compound 0.1 µM, first compound 0.0316 µM
# [14] = second compound 0.1 µM, first compound 0.1 µM
# [15] = second compound 0.1 µM, first compound 0.316 µM
# [16] = second compound 0.1 µM, first compound 1 µM
# [17] = second compound 0.1 µM, first compound 3.16 µM
# [18] = second compound 0.1 µM, first compound 10 µM
# [19] = second compound 0.316 µM, first compound 0.0316 µM
# [20] = second compound 0.316 µM, first compound 0.1 µM
# [21] = second compound 0.316 µM, first compound 0.316 µM
# [22] = second compound 0.316 µM, first compound 1 µM
# [23] = second compound 0.316 µM, first compound 3.16 µM
# [24] = second compound 0.316 µM, first compound 10 µM
# [25] = second compound 1 µM, first compound 0.0316 µM
# [26] = second compound 1 µM, first compound 0.1 µM
# [27] = second compound 1 µM, first compound 0.316 µM
# [28] = second compound 1 µM, first compound 1 µM
# [29] = second compound 1 µM, first compound 3.16 µM
# [30] = second compound 1 µM, first compound 10 µM
# [31] = second compound 3.16 µM, first compound 0.0316 µM
# [32] = second compound 3.16 µM, first compound 0.1 µM
# [33] = second compound 3.16 µM, first compound 0.316 µM
# [34] = second compound 3.16 µM, first compound 1 µM
# [35] = second compound 3.16 µM, first compound 3.16 µM
# [36] = second compound 3.16 µM, first compound 10 µM
# [37] = second compound 10 µM, first compound 0.0316 µM
# [38] = second compound 10 µM, first compound 0.1 µM
# [39] = second compound 10 µM, first compound 0.316 µM
# [40] = second compound 10 µM, first compound 1 µM
# [41] = second compound 10 µM, first compound 3.16 µM
# [42] = second compound 10 µM, first compound 10 µM
# 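Also: spheroids exposed to compounds for seven days before readout.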
# 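For viability, T/C in this document: luminescence viability expressed relative to DMSO vehicle wells set as 100%.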
smiles,measurement,setting,value
C[C@@H](NC(=O)c1ncnc(N)c1Cl)c1ncc(C(=O)Nc2cc(C(F)(F)F)c(Cl)cn2)s1 + C#Cc1c(F)ccc2cc(O)cc(-c3ncc4c(N5CC6CCC(C5)N6)nc(OCC56CCCN5CC(F)C6)nc4c3F)c12,IC50,[1],> 10000 nM
same,IC50,[2],> 10000 nM
same,IC50,[3],> 10000 nM
same,IC50,[4],> 10000 nM
same,IC50,[5],> 10000 nM
same,IC50,[6],> 10000 nM
same,"viability, T/C",[7],123%
same,"viability, T/C",[8],101%
same,"viability, T/C",[9],102%
same,"viability, T/C",[10],78.9%
same,"viability, T/C",[11],87.8%
same,"viability, T/C",[12],58.8%
same,"viability, T/C",[13],106%
same,"viability, T/C",[14],100%
same,"viability, T/C",[15],86.7%
same,"viability, T/C",[16],81.7%
same,"viability, T/C",[17],73.5%
same,"viability, T/C",[18],62.1%
same,"viability, T/C",[19],97.2%
same,"viability, T/C",[20],86.3%
same,"viability, T/C",[21],73%
same,"viability, T/C",[22],84.1%
same,"viability, T/C",[23],69.9%
same,"viability, T/C",[24],63%
same,"viability, T/C",[25],84.8%
same,"viability, T/C",[26],81.8%
same,"viability, T/C",[27],101%
same,"viability, T/C",[28],75.3%
same,"viability, T/C",[29],74.7%
same,"viability, T/C",[30],57.2%
same,"viability, T/C",[31],103%
same,"viability, T/C",[32],96.8%
same,"viability, T/C",[33],94.7%
same,"viability, T/C",[34],80.5%
same,"viability, T/C",[35],69.8%
same,"viability, T/C",[36],63%
same,"viability, T/C",[37],97.6%
same,"viability, T/C",[38],87%
same,"viability, T/C",[39],83.6%
same,"viability, T/C",[40],80.3%
same,"viability, T/C",[41],75%
same,"viability, T/C",[42],58.1%
O=C(c1ccc(F)c(F)c1Nc1ccc(I)cc1F)N1CC(O)([C@@H]2CCCCN2)C1 + C=CC(=O)N1CCN(c2nc(OCC3CCCN3C)nc3c(F)c(-c4nc(N)cc(C)c4C(F)(F)F)c(Cl)cc23)C(C)C1,IC50,"curve of first compound, second compound 0.00316 µM",230 nM
same,IC50,"curve of first compound, second compound 0.01 µM",212 nM
same,IC50,[1],195 nM
same,IC50,[2],327 nM
same,IC50,[3],148 nM
same,IC50,[4],324 nM
same,"viability, T/C","second compound 0.00316 µM, first compound 0.00316 µM",86%
same,"viability, T/C","second compound 0.00316 µM, first compound 0.01 µM",90.4%
same,"viability, T/C","second compound 0.00316 µM, first compound 0.0316 µM",72%
same,"viability, T/C","second compound 0.00316 µM, first compound 0.1 µM",61.1%
same,"viability, T/C","second compound 0.00316 µM, first compound 0.316 µM",47.1%
same,"viability, T/C","second compound 0.00316 µM, first compound 1 µM",33%
same,"viability, T/C","second compound 0.01 µM, first compound 0.00316 µM",105%
same,"viability, T/C","second compound 0.01 µM, first compound 0.01 µM",80.9%
same,"viability, T/C","second compound 0.01 µM, first compound 0.0316 µM",70.3%
same,"viability, T/C","second compound 0.01 µM, first compound 0.1 µM",61.9%
same,"viability, T/C","second compound 0.01 µM, first compound 0.316 µM",48.5%
same,"viability, T/C","second compound 0.01 µM, first compound 1 µM",30.9%
same,"viability, T/C","second compound 0.0316 µM, first compound 0.00316 µM",96.1%
same,"viability, T/C","second compound 0.0316 µM, first compound 0.01 µM",90.7%
same,"viability, T/C",[7],77%
same,"viability, T/C",[8],55.5%
same,"viability, T/C",[9],47.4%
same,"viability, T/C",[10],35.9%
same,"viability, T/C","second compound 0.1 µM, first compound 0.00316 µM",96.4%
same,"viability, T/C","second compound 0.1 µM, first compound 0.01 µM",82.5%
same,"viability, T/C",[13],73.5%
same,"viability, T/C",[14],69.2%
same,"viability, T/C",[15],49.4%
same,"viability, T/C",[16],34.4%
same,"viability, T/C","second compound 0.316 µM, first compound 0.00316 µM",90.6%
same,"viability, T/C","second compound 0.316 µM, first compound 0.01 µM",86.2%
same,"viability, T/C",[19],84.1%
same,"viability, T/C",[20],52.6%
same,"viability, T/C",[21],49.2%
same,"viability, T/C",[22],37.1%
same,"viability, T/C","second compound 1 µM, first compound 0.00316 µM",86.1%
same,"viability, T/C","second compound 1 µM, first compound 0.01 µM",72.9%
same,"viability, T/C",[25],58%
same,"viability, T/C",[26],70.8%
same,"viability, T/C",[27],50.8%
same,"viability, T/C",[28],36.6%
CCN1CCN(Cc2ccc(Nc3ncc(F)c(-c4cc(F)c5nc(C)n(C(C)C)c5c4)n3)nc2)CC1,"viability, T/C",compound 0.00316 µM,92.9% [middle of 4 runs]
same,"viability, T/C",compound 0.01 µM,88.4% [middle of 4 runs]
same,"viability, T/C",compound 0.0316 µM,100% [middle of 4 runs]
same,"viability, T/C",compound 0.316 µM,75.5% [middle of 4 runs]
same,"viability, T/C",compound 1 µM,67.7% [middle of 4 runs]
same,IC50,curve of compound,> 1000 nM
CC1(O)CCCC1n1c(=O)c(C(F)F)cc2cnc(NC3CCN(S(C)(=O)=O)CC3)nc21 (configuration not stated) + C#Cc1c(F)ccc2cc(O)cc(-c3ncc4c(N5CC6CCC(C5)N6)nc(OCC56CCCN5CC(F)C6)nc4c3F)c12,IC50,[1],2540 nM
same,IC50,[2],2970 nM
same,IC50,[3],3630 nM
same,IC50,[4],2080 nM
same,IC50,[5],2210 nM
same,IC50,[6],2900 nM
same,"viability, T/C",[7],95%
same,"viability, T/C",[8],66.2%
same,"viability, T/C",[9],60.5%
same,"viability, T/C",[10],79.6%
same,"viability, T/C",[11],44.1%
same,"viability, T/C",[12],2.88%
same,"viability, T/C",[13],78.7%
same,"viability, T/C",[14],76.5%
same,"viability, T/C",[15],68.7%
same,"viability, T/C",[16],61.2%
same,"viability, T/C",[17],53.6%
same,"viability, T/C",[18],2.44%
same,"viability, T/C",[19],89.9%
same,"viability, T/C",[20],72.2%
same,"viability, T/C",[21],68.3%
same,"viability, T/C",[22],66.9%
same,"viability, T/C",[23],60.4%
same,"viability, T/C",[24],3.62%
same,"viability, T/C",[25],91.5%
same,"viability, T/C",[26],81.4%
same,"viability, T/C",[27],66.8%
same,"viability, T/C",[28],64.7%
same,"viability, T/C",[29],47.2%
same,"viability, T/C",[30],1.8%
same,"viability, T/C",[31],104%
same,"viability, T/C",[32],84.9%
same,"viability, T/C",[33],66.2%
same,"viability, T/C",[34],62.2%
same,"viability, T/C",[35],58%
same,"viability, T/C",[36],2.91%
same,"viability, T/C",[37],89.1%
same,"viability, T/C",[38],70.8%
same,"viability, T/C",[39],82.7%
same,"viability, T/C",[40],57.1%
same,"viability, T/C",[41],55.9%
same,"viability, T/C",[42],2.88%
